# Entries after “also recorded” stand apart in the source; their conditions may differ.
# Legend:
# [1] = tested on: HepG2 (human hepatocellular liver carcinoma cell line); assay: MTT in vitro cytotoxicity assay, HepG2; format: cell-based; conditions: for IC50: mean ± S.D.; for inhibition at 100 µM: HepG2, at 100 µM, read-out: Cell growth inhibition (%) HepG2
# Description: (§1) The lead molecules A2 and all newly prepared diarylamine derivatives B1-13 and C1-11 were evaluated for their in vitro cytotoxic effects against SGC-7901, A875, HepG2 and MARC145 cell lines by the classical MTT [3-(4,5-dimethylthiazol-2-yl)-2,5-diphenyl tetrazolium bromide] assay ([Alley et al., 1988]; [Ke et al., 2012]; [Shi et al., 2012]; [Yu et al., 2015]; [Ke et al., 2019]; [Xu et al., 2019]; [Huang et al., 2021]) using 5-FU (5-Fluorouracil) as a control.
# (§2) The cytotoxicity of target compounds was determined with MTT assay ([Alley et al., 1988]; [Ke et al., 2012]; [Shi et al., 2012]; [Yu et al., 2015]; [Ke et al., 2019]; [Xu et al., 2019]; [Huang et al., 2021]). SGC-7901, A875, HepG2 and MARC145 cell lines were obtained from Hubei Biopesticide Engineering Research Centre. All data of the experiment were analyzed with SPSS software, and all assay were performed in triplicate on three independent experiments, and measurement data were expressed as the mean ± S.D.
# (§3) The in vitro cytotoxicity of the synthesized compounds against different cell lines (SGC-7901, A875, HepG2 and MARC145) was measured with MTT assay. All the data of the experiment were analyzed with SPSS software, and the 50% inhibitory concentrations (IC50) of each compound for the different cell lines were determined. A control was run for each test, and all assays were performed in triplicate on three independent experiments, and measurement data were expressed as the mean ± S.D.
# [2] = tested on: SGC-7901 (human gastric cancer cell line); assay: MTT in vitro cytotoxicity assay, SGC-7901; format: cell-based; conditions: for IC50: mean ± S.D.; for inhibition at 100 µM: SGC-7901, at 100 µM, read-out: Cell growth inhibition (%) SGC-7901
# Description: as §1, §2, §3
# [3] = MTT in vitro cytotoxicity assay, MARC145; format: cell-based, African green monkey; conditions: African green monkey, MARC145 cells (kidney cell line, subclone of MA-104), MTT, mean ± S.D.
# Description: as §1, §2, §3
# [4] = tested on: A875 (human melanoma cell line); assay: MTT in vitro cytotoxicity assay, A875; format: cell-based; conditions: for IC50: mean ± S.D.; for inhibition at 100 µM: A875, at 100 µM, read-out: Cell growth inhibition (%) A875
# Description: as §1, §2, §3
# [5] = tested on: MARC145 (subclone of African green monkey kidney cell line MA-104); assay: MTT in vitro cytotoxicity assay, MARC145; format: cell-based; conditions: Chlorocebus sabaeus, MARC145; at 100 µM; read-out: Cell growth inhibition (%) MARC145
# Description: as §1, §2, §3
# [6] = tested on: SGC-7901, A875, HepG2 and MARC145 cell lines; assay: MTT in vitro cytotoxicity assay, statements over the whole cell panel; format: cell-based
# Description: as §1, §2, §3
Structure (SMILES),melting point [°C],"IC50 ([1]; HepG2, Table 1, MTT) [µM]","IC50 ([2]; SGC-7901, Table 1, MTT) [µM]",IC50 ([3]; Table 1) [µM],"IC50 ([4]; A875, Table 1, MTT) [µM]","IC50 ([1]; HepG2, Table 3, MTT) [µM]",inhibition at 100 µM [1] [%],"IC50 ([2]; SGC-7901, Table 3, MTT) [µM]",inhibition at 100 µM [2] [%],IC50 ([3]; Table 3) [µM],inhibition at 100 µM [5] [%],"IC50 ([4]; A875, Table 3, MTT) [µM]",inhibition at 100 µM [4] [%],"cytotoxic effect / inhibition activity in words ([6]; IC50-based judgement, compared with 5-FU)","dose-response analysis of cell growth inhibition, in words ([6]; SGC-7901, A875, HepG2, MARC145)","inhibition activity in preliminary screening, in words ([6]; at 100 µM, inhibition rate higher than control 5-FU)"
"NC(=O)c1ccccc1NC(=O)c1ccccc1Nc1cccc(C(F)(F)F)c1 [B1, N-(2-Carbamoylphenyl)-2-((3-(trifluoromethyl)phenyl)amino)benzamide]",136 to 137,> 100,> 100,> 100,> 100,–,–,–,–,–,–,–,–,–,–,–
"CNC(=O)c1ccccc1NC(=O)c1ccccc1Nc1cccc(C(F)(F)F)c1 [B2, N-Methyl-2-(2-((3-(trifluoromethyl)phenyl)amino)benzamido)benzamide]",–,> 96,> 96,> 96,> 96,–,–,–,–,–,–,–,–,–,–,–
"NC(=O)c1cc(F)cc(Br)c1NC(=O)c1ccccc1Nc1cccc(C(F)(F)F)c1 [B3, 3-Bromo-5-fluoro-2-(2-((3-(trifluoromethyl)phenyl)amino)benzamido)benzamide]",198 to 199,> 80,22.5 ± 4.04,38 ± 0.81,> 80,–,–,–,–,–,–,–,–,–,–,–
"CNC(=O)c1cc(F)cc(Br)c1NC(=O)c1ccccc1Nc1cccc(C(F)(F)F)c1 [B4, 3-Bromo-5-fluoro-N-methyl-2-(2-((3-(trifluoromethyl)phenyl)amino)benzamido)benzamide]",189 to 190,> 78,> 78,> 78,> 78,–,–,–,–,–,–,–,–,–,–,–
"Cc1cccc(C(N)=O)c1NC(=O)c1ccccc1Nc1cccc(C(F)(F)F)c1 [B5, N-(2-Carbamoyl-6-methylphenyl)-2-((3-(trifluoromethyl)phenyl)amino)benzamide]",–,> 97,> 97,> 97,> 97,–,–,–,–,–,–,–,–,–,–,–
"CNC(=O)c1cccc(C)c1NC(=O)c1ccccc1Nc1cccc(C(F)(F)F)c1 [B6, N,3-Dimethyl-2-(2-((3-(trifluoromethyl)phenyl)amino)benzamido)benzamide]",–,> 94,> 94,> 94,> 94,–,–,–,–,–,–,–,–,–,–,–
"NC(=O)c1ccc(Cl)cc1NC(=O)c1ccccc1Nc1cccc(C(F)(F)F)c1 [B7, N-(2-Carbamoyl-5-chlorophenyl)-2-((3-(trifluoromethyl)phenyl)amino)benzamide]",176 to 177,> 92,> 92,> 92,> 92,–,–,–,–,–,–,–,–,–,–,–
"CNC(=O)c1ccc(Cl)cc1NC(=O)c1ccccc1Nc1cccc(C(F)(F)F)c1 [B8, 4-Chloro-N-methyl-2-(2-((3-(trifluoromethyl)phenyl)amino)benzamido)benzamide]",152 to 153,> 89,> 89,> 89,> 89,–,–,–,–,–,–,–,–,–,–,–
"NC(=O)c1cc(Cl)ccc1NC(=O)c1ccccc1Nc1cccc(C(F)(F)F)c1 [B9, N-(2-Carbamoyl-4-chlorophenyl) -2-((3-(trifluoromethyl)phenyl)amino)benzamide]",–,> 92,> 92,> 92,> 92,–,–,–,–,–,–,–,–,–,–,–
"CNC(=O)c1cc(Cl)ccc1NC(=O)c1ccccc1Nc1cccc(C(F)(F)F)c1 [B10, 5-Chloro-N-methyl-2-(2-((3-(trifluoromethyl)phenyl)amino)benzamido)benzamide]",190 to 191,49.9 ± 9.26,39.4 ± 8.96,38 ± 9.84,> 89,–,–,–,–,–,–,–,–,–,–,–
"NC(=O)c1c(Cl)cccc1NC(=O)c1ccccc1Nc1cccc(C(F)(F)F)c1 [B11, N-(2-Carbamoyl-3-chlorophenyl)-2-((3-(trifluoromethyl)phenyl)amino)benzamide]",194 to 195,> 92,> 92,> 92,> 92,–,–,–,–,–,–,–,–,–,–,–
"CNC(=O)c1c(Cl)cccc1NC(=O)c1ccccc1Nc1cccc(C(F)(F)F)c1 [B12, 2-Chloro-N-methyl-6-(2-((3-(trifluoromethyl)phenyl)amino)benzamido)benzamide]",178 to 179,> 89,> 89,> 89,> 89,–,–,–,–,–,–,–,–,–,–,–
"CNC(=O)c1cc(Cl)cc(Cl)c1NC(=O)c1ccccc1Nc1cccc(C(F)(F)F)c1 [B13, 3,5-Dichloro-N-methyl-2-(2-((3-(trifluoromethyl)phenyl)amino)benzamido)benzamide]",180 to 181,> 83,> 83,> 83,> 83,–,–,–,–,–,–,–,–,–,–,–
"O=C(Nc1ccc(C(F)(F)F)cc1)c1cccnc1Nc1cccc(C(F)(F)F)c1 [C8, N-(4-(Trifluoromethyl)phenyl)-2-((3-(trifluoromethyl)phenyl)amino)nicotinamide]",–,–,–,–,–,> 94,42.4 ± 2.6,> 94,51.2 ± 3.5,57.7 ± 8.87,65.8 ± 2.6,55.6 ± 6.73,56.5 ± 3.1,–,–,–

# Continued, in another order:
melting point [°C],Structure (SMILES),"IC50 ([1]; HepG2, Table 1, MTT) [µM]","IC50 ([2]; SGC-7901, Table 1, MTT) [µM]",IC50 ([3]; Table 1) [µM],"IC50 ([4]; A875, Table 1, MTT) [µM]","IC50 ([1]; HepG2, Table 3, MTT) [µM]",inhibition at 100 µM [1] [%],"IC50 ([2]; SGC-7901, Table 3, MTT) [µM]",inhibition at 100 µM [2] [%],IC50 ([3]; Table 3) [µM],inhibition at 100 µM [5] [%],"IC50 ([4]; A875, Table 3, MTT) [µM]",inhibition at 100 µM [4] [%],"cytotoxic effect / inhibition activity in words ([6]; IC50-based judgement, compared with 5-FU)","dose-response analysis of cell growth inhibition, in words ([6]; SGC-7901, A875, HepG2, MARC145)","inhibition activity in preliminary screening, in words ([6]; at 100 µM, inhibition rate higher than control 5-FU)"
74 to 75,"CC(C)c1ccc(NC(=O)c2ccccc2Nc2cccc(C(F)(F)F)c2)cc1 [C1, N-(4-Isopropylphenyl)-2-((3-(trifluoromethyl)phenyl)amino)benzamide]",–,–,–,–,> 100,42.7 ± 3.1,47 ± 9.74,72.3 ± 3.1,> 100,7.5 ± 2.3,> 100,43.1 ± 2,–,–,–
161 to 162,"CC(C)c1ccc(NC(=O)c2cccnc2Nc2cccc(C(F)(F)F)c2)cc1 [C2, N-(4-Isopropylphenyl)-2-((3-(trifluoromethyl)phenyl)amino)nicotinamide]",–,–,–,–,> 100,13.1 ± 2.3,> 100,26.9 ± 1.8,> 100,15.8 ± 1.9,> 100,42 ± 2.5,–,–,–
82 to 83,"O=C(Nc1ccccc1C(F)(F)F)c1ccccc1Nc1cccc(C(F)(F)F)c1 [C3, N-(2-(Trifluoromethyl)phenyl)-2-((3-(trifluoromethyl)phenyl)amino)benzamide]",–,–,–,–,24.2 ± 3.21,88.5 ± 3.2,29.7 ± 4.03,78.6 ± 2.9,> 94,23.5 ± 2.1,> 94,56.4 ± 2.5,–,–,–
139 to 140,"O=C(Nc1ccccc1C(F)(F)F)c1cccnc1Nc1cccc(C(F)(F)F)c1 [C4, N-(2-(Trifluoromethyl)phenyl)-2-((3-(trifluoromethyl)phenyl)amino)nicotinamide]",–,–,–,–,> 94,3.1 ± 1.2,> 94,4.5 ± 0.4,> 94,0,> 94,5.2 ± 1.5,–,–,–
75 to 76,"O=C(Nc1cccc(C(F)(F)F)c1)c1ccccc1Nc1cccc(C(F)(F)F)c1 [C5, N-(3-(Trifluoromethyl)phenyl)-2-((3-(trifluoromethyl)phenyl)amino)benzamide]",–,–,–,–,10.1 ± 0.8,88.9 ± 1.9,6.39 ± 1.53,89.6 ± 5.4,9.57 ± 2.15,92.3 ± 4.1,8.54 ± 2.17,93.7 ± 3.2,good cytotoxic effect; also recorded: higher inhibition activities compared to the control 5-FU,significant concentration dependence,good inhibition activity
65 to 66,"O=C(Nc1ccccn1)c1ccccc1Nc1cccc(C(F)(F)F)c1 [C9, N-(Pyridin-2-yl)-2-((3-(trifluoromethyl)phenyl)amino)benzamide]",–,–,–,–,64.2 ± 3.89,75 ± 2.7,42 ± 7.95,80.5 ± 2.5,64.7 ± 3.02,56.5 ± 3.3,> 112,30.3 ± 4.1,–,–,–
